From publication PMC4506092, “Utilizing Chemical Genomics to Identify Cytochrome b as a Novel Drug Target for Chagas Disease” (PLoS Pathogens, 2015)
“And” between values parts separate entries of the source, which are not always exact repeats. Equal entries are not always repeated. Where two headings read alike, the source gives them in different places.

Key:
[1] = tested on: T. cruzi epimastigotes (wild-type); assay: T. cruzi epimastigote growth assay (CellTiter-Glo), wild-type; format: cell-based, Trypanosoma cruzi; conditions: for EC50: wild-type T. cruzi, seven days, read-out: Epimastigote EC50, WT
Procedure: (§1) To determine compound activity on the T. cruzi epimastigote form, epimastigotes (20 μL; 2.5 × 10^5 parasites / mL) were added to 384-well assay plates containing 20 μL of LIT media with pre-dispensed compounds (0.2% DMSO final concentration) and incubated for seven days at 26°C / 0% CO2. Parasite viability was assessed at the end of this incubation period using the CellTiter-Glo Luminescent Cell Viability Assay (Promega). Luminescence as a measure of parasite viability was measured on the EnVision plate reader.

[2] = tested on: S. cerevisiae strain NF7061; assay: S. cerevisiae susceptibility assay, YPG (glycerol) medium; format: cell-based, Saccharomyces cerevisiae; conditions: 48 hours
Procedure: The minimal inhibitory concentrations (MIC) of the compounds for inhibition of S. cerevisiae drug pump knock-out strain NF7061 (MATa his3Δ 1; leu2Δ 0; met15Δ 0; ura3Δ 0; snq2::KanMX; pdr5::KanMX; pdr1::NAT1; pdr3::KanMX; yap1::NAT1; pdr2::LEU2; yrm1::MET; yor1::LYS2) were determined by a modification of the microdilution technique described elsewhere. Briefly, two-fold dilutions of the compound solution in DMSO were made. They were added to each well of 96-well assay plate containing 200 μL per well of either YPD (1% Difco Yeast Extract, 2% Difco Bacto Peptone and 2% Dextrose) or YPG (3% of glycerol in replacement of 2% Dextrose in YP) medium. Early stationary yeast NF7061 cells grown in either medium were collected and resuspended to 2 × 10^5 cells / mL. Ten microliters of the yeast cell suspension were inoculated to each well of the plates containing medium and compound to achieve a final inoculum of approximately 10^4 CFU / mL. The plates were incubated at 30°C for 24 hours (containing YPD) or 48 hours (containing YPG).

[3] = tested on: T. cruzi trypomastigotes (GNF7686-resistant, DR); assay: T. cruzi trypomastigote viability assay (CellTiter-Glo), GNF7686-resistant; format: cell-based, Trypanosoma cruzi; conditions: for EC50: GNF7686-resistant T. cruzi, 48-hour incubation
Procedure: (§2) To assess compound efficacy on trypomastigotes, parasites (30 μL; 2 × 10^6 trypomastigotes / mL) were added to 384-well plates containing 10 μL of RPMI-1640 without phenol red (Invitrogen) and supplemented with 10% FBS and 100 IU penicillin / 100 µg streptomycin per mL, and then treated with compounds (0.2% DMSO final concentration). Following a 48-hour incubation period, viability was assessed using the CellTiter-Glo Luminescent Cell Viability Assay (Promega).

P. falciparum D10attB = assay: P. falciparum SYBR Green proliferation assay, D10attB line; format: cell-based, Plasmodium falciparum
Procedure: GNF7686 and cytochrome b inhibitors were assayed for activity on two Plasmodium falciparum (P. falciparum) lines: D10attB and yDHODH-D10attB. The D10attB line is reliant on the coenzyme Q-dependent malarial dihydroorotate dehydrogenase (PfDHODH), whereas the yDHODH-D10attB line expresses also the fumarate-utilizing Saccharomyces cerevisiae (S. cerevisiae) DHODH, which circumvents reliance on PfDHODH and renders this line fully resistant to cytochrome b inhibitors. The use of these two lines allows for distinction of selection of potent cytochrome b inhibitors as described in detail in the Results section. Growth and viability of P. falciparum cell lines (in the presence or absence of drug) in infected erythrocytes were assessed using a SYBR Green-based proliferation assay exactly as described previously.

[4] = tested on: L. donovani axenic amastigotes; assay: Leishmania donovani axenic amastigote in vitro efficacy assay; format: cell-based; conditions: 48 hours
Procedure: Leishmania donovani (L. donovani) axenic amastigotes (strain MHOM/SD/62/1S-CL2D) were maintained at 37°C / 5% CO2 in RPMI-1640 medium containing 4 mM L-glutamine, 20% heat inactivated FBS, 100 IU penicillin / 100 μg streptomycin per mL, 23 μM folic acid, 100 µM adenosine, 22 mM D-glucose, and 25 mM 2-(N-morpholino)ethanesulfonic acid (pH 5.5 adjusted at 37°C using 1M HCl).
For compound screening, axenic amastigotes were seeded into 384-well plates containing axenic amastigote medium with pre-dispensed compounds (0.25% final DMSO concentration) at a density of 9,600 cells / well. Plates were incubated for 48 hours at 37°C / 5% CO2. Cell viability was assessed using the CellTiter-Glo Luminescent Cell Viability Assay (Promega).

[5] = tested on: T. b. brucei bloodstream form; assay: T. b. brucei bloodstream form in vitro efficacy assay; format: cell-based, Trypanosoma brucei brucei; conditions: 48 hours, read-out: T. b. Brucei EC50, BSF
Procedure: Trypanosoma brucei brucei (T. b. brucei) bloodstream form (strain Lister 427) was maintained in HMI-9 medium: IMDM (Iscove's Modified Dulbecco's Media), 10% heat-inactivated FBS, 10% Serum Plus medium supplement (SAFC biosciences), 1 mM hypoxanthine, 50 μM bathocuproine disulfonate.Na2, 1.5 mM cysteine, 1 mM pyruvate, 39 μg/mL thymidine, and 0.2 mM 2-mercapthoethanol) at 37°C / 5% CO2.
For compound screening, parasites were seeded into 384-well assay plates containing HMI-9 with pre-dispensed compounds (0.25% final DMSO concentration) at a density of 6,000 cells / well, and plates were then incubated for 48 hours at 37°C / 5% CO2. Cell viability was assessed using the CellTiter-Glo Luminescent Cell Viability Assay (Promega).

[6] = tested on: T. cruzi epimastigotes (GNF7686-resistant, DR); assay: T. cruzi epimastigote growth assay (CellTiter-Glo), GNF7686-resistant; format: cell-based, Trypanosoma cruzi
Procedure: as §1
Resistant epimastigotes were cloned by the limiting dilution technique.

[7] = tested on: T. cruzi trypomastigotes (wild-type); assay: T. cruzi trypomastigote viability assay (CellTiter-Glo), wild-type; format: cell-based, Trypanosoma cruzi; conditions: 48-hour incubation, read-out: Trypomastigote EC50, WT
Procedure: as §2

[8] = tested on: L. donovani promastigotes; assay: Leishmania donovani promastigote proliferation assay; format: cell-based
[9] = Saccharomyces cerevisiae, NF7061, MIC visual growth inhibition screen
[10] = Plasmodium falciparum; read-out: P. falciparum EC50, D10attB
[11] = Trypanosoma cruzi, 168 h, GNF7686-resistant T. cruzi culture, seven days, read-out: Epimastigote EC50, DR

Compound: CO/C(=C/C(N)=O)[C@H](C)[C@H](/C=C/c1csc(-c2csc([C@@H](C)/C=C/C=C/C(C)C)n2)n1)OC [Myxothiazol]
- EC50 [1]: 490 ± 50 nM
- EC50 ([2]; MIC visual growth inhibition screen): 70 ± 10 nM
- EC50 [3]: 2900 ± 430 nM
- EC50 (P. falciparum D10attB; read-out: P. falciparum EC50, D10attB): 300 ± 10 nM
- EC50 [4]: 9600 ± 3900 nM
- EC50 [5]: 17200 ± 3100 nM
- EC50 ([6]; GNF7686-resistant T. cruzi culture, seven days, read-out: Epimastigote EC50, DR): 430 ± 80 nM
- EC50 [7]: 2900 ± 480 nM
- EC50 [8]: 3100 ± 450 nM

Compound: CCc1c(C)c(C#N)c2nc3ccccc3n2c1O [GNF7686]
- EC50 ([1]; Trypanosoma cruzi, 168 h): 160 ± 20 nM
- EC20 value on T. cruzi epimastigotes ([1]; starting concentration of resistance selection): 10 nM
- EC50 [2, 9]: 5000 nM
- EC50 ([3]; Trypanosoma cruzi): 4500 ± 840 nM
- EC50 (P. falciparum D10attB; [10]): > 12500 nM
- EC50 ([4]; Leishmania donovani): 460 ± 280 nM
- EC50 ([5]; Trypanosoma brucei): > 25000 nM
- Shift of epimastigote EC50, GNF7686-resistant vs wild-type [6]: ~ 5 fold and ~ 4 fold
- EC50 [6, 11]: 730 ± 40 nM
- EC50 ([6]; Trypanosoma cruzi, epimastigote clones, read-out: EC50 of three clones isolated from the GNF7686-resistant culture): ~1000 nM
- EC50 ([7]; Trypanosoma cruzi): 710 ± 160 nM
- EC50 ([8]; Leishmania donovani): 460 ± 120 nM

Compound: CO\C=C(C(=O)OC)/C(C)=C\C=C\c1ccccc1 [Strobilurin]
- EC50 ([1]; Trypanosoma cruzi, 168 h): 590 ± 130 nM
- EC50 [2, 9]: 100 ± 20 nM
- EC50 ([3]; Trypanosoma cruzi): 1400 ± 360 nM
- EC50 (P. falciparum D10attB; [10]): 460 ± 270 nM
- EC50 ([4]; Leishmania donovani): 9100 ± 2500 nM
- EC50 ([5]; Trypanosoma brucei): > 25000 nM
- EC50 [6, 11]: 340 ± 10 nM
- EC50 ([7]; Trypanosoma cruzi): 1700 ± 410 nM
- EC50 ([8]; Leishmania donovani): 4300 ± 820 nM

Compound: CCCCCC[C@H]1C(=O)O[C@H](C)[C@H](NC(=O)c2cccc(NC=O)c2O)C(=O)O[C@@H](C)[C@@H]1OC(=O)CC(C)C [Antimycin A]
- EC50 ([1]; Trypanosoma cruzi, 168 h): 46 ± 10 nM
- EC50 [2, 9]: < 2 nM
- Shift of trypomastigote potency, mutant vs wild-type [3]: 20 fold
- EC50 ([3]; Trypanosoma cruzi): 4300 ± 1300 nM
- EC50 (P. falciparum D10attB; Plasmodium falciparum, read-out: P. falciparum EC50, D10attB): 700 ± 340 nM
- EC50 ([4]; Leishmania donovani): 10 ± 4 nM
- EC50 ([5]; Trypanosoma brucei): > 25000 nM
- Shift of epimastigote EC50, GNF7686-resistant vs wild-type [6]: 40 fold
- EC50 [6, 11]: 1800 ± 210 nM
- EC50 ([7]; Trypanosoma cruzi): 200 ± 40 nM
- EC50 ([8]; Leishmania donovani): 10 ± 3 nM

Compound: O=C(Cn1ccnc1[N+](=O)[O-])NCc1ccccc1 [Benznidazole]
- EC50 ([1]; Trypanosoma cruzi, 168 h): 5500 ± 150 nM
- EC50 [2, 9]: > 40000 nM
- EC50 ([3]; Trypanosoma cruzi): 11000 ± 580 nM
- EC50 (P. falciparum D10attB; [10]): > 12500 nM
- EC50 ([4]; Leishmania donovani): > 25000 nM
- EC50 ([5]; Trypanosoma brucei): > 25000 nM
- EC50 [6, 11]: 6700 ± 600 nM
- EC50 ([7]; Trypanosoma cruzi): 13000 ± 1800 nM
- EC50 ([8]; Leishmania donovani): > 25000 nM
